Assay results from patent US20130273057A1, “METHODS AND COMPOSITIONS FOR THE TREATMENT AND DIAGNOSIS OF VASCULAR INFLAMMATORY DISORDERS OR ENDOTHELIAL CELL DISORDERS” (Beth Israel Deaconess Medical Center, Inc., priority 2007, published 2013).
Ends that are not written are not given here.

Experiments:
[1] = tested on: stenosis after balloon angioplasty; conditions: rabbit, rat, and pig models; cited from earlier work
[2] = target: T1, thrombin (Homo sapiens, UniProt P00734); test: In vitro thrombin activation colorimetric assay, HUVECs expressing Tie-1 endodomain with human plasma and chromogenic thrombin substrate; format: cell-based; conditions: hirudin 100 U/ml; HUVECs infected with Tie-1 endodomain adenovirus; absorbance at 405 nm
T1 construct: tissue Calbiochem 527420; host or cells: human plasma added to HUVEC monolayers
Experimental: HUVECs were either expressing GFP or Tie-1 endodomain. Whole human plasma supplemented with an excess chromogenic thrombin substrate (sarcosine-Pro-Arg-pNA) (Duncan, Bowie et al., Clin Chem 31: 853-855, (1985)) was added to HUVECs. Cleavage carboxyl-terminal to the arginine residue by thrombin releases […], which can be monitored by absorbance at 405 nm.
Methods: HUVECs were grown to confluency in a 12-well plate. Cells were either uninfected, infected with control GFP adenovirus, or Tie-1 endodomain adenovirus. Next day, medium was changed to fresh full EGM2-MV. 72-hr post infection, cells were washed with EBM2 basal medium (without phenol red), and 0.5 ml of assay medium [EBM2 basal medium (without phenol red)/10% human plasma (Calbiochem 527420)/200 μM chromogenic thrombin substrate (Calbiochem 539518)] was added. Hirudin (Calbiochem 377853, 100 U/ml) was added to one set of cells infected with Tie-1 endodomain. The assay was quenched by the addition of aprotinin (Sigma A1154, 5.6 U/ml). Absorbance at 405 nm was measured using a spectrophotometer and used as an indicator of thrombin activity. […]
Results: We used a colorimetric assay to determine whether expression of Tie-1 endodomain could induce activation of thrombin in vitro. […] Thrombin activation was detected by an increase in absorbance of the cleaved thrombin substrate ([…]) at 405 nm. […]

[3] = tested on: ICAM-1; test: Thrombin-induced ICAM-1 upregulation in HUVECs, western blot; format: cell-based, human
From the text: FIGS. 33A-33B show thrombin induction of ICAM-1 upregulation in HUVECs is dependent on EphA2. […] Representative data from 3 experiments are shown. FIG. 33B is a graph showing densitometric quantification of the results in […] normalized for fold increase in ICAM-1 expression. Results were reported as fold-increase in ICAM-1 expression relative to unstimulated controls. Data are mean±s.d. of three experiments; * p<0.002.
FIGS. 34A-34B show overexpression of mouse EphA2 rescues thrombin-induced ICAM-1 upregulation in HUVECs with endogenous EphA2 knocked down. […] The cells were treated with human EphA2 specific siRNA as indicated and ICAM-1 upregulation was induced using 1 U/ml thrombin for 6 hours (T). Representative data from 4 experiments are shown. […] “−” and “+” represent without or with thrombin stimulation (1 U/ml, 6 hr). Representative results from two experiments are shown.
Methods: Two validated Stealth siRNA duplexes specific to human EphA2 and a negative control duplexes were purchased from Invitrogen (EphA2 siRNA, catalog number: 12938-022, sequence: 5′-gca agg aag ugg uac ugc ugg acu u-3′ (siRNA #1, SEQ NO ID 33) and control siRNA, catalog number 12935-300, sequence: 5-ggg acc uga ugc aga aca uca uga a-3 (siRNA #2, SEQ NO ID 34)). […] ICAM-1 protein expression were detected by western blots using an anti ICAM-1 antibodies. […]

[4] = tested on: Tie-1-induced inflammation in HUVECs; test: p38 inhibition study, real-time PCR in HUVECs infected with Tie-1 adenovirus; format: cell-based, human; conditions: 48 hours post infection
From the text: FIG. 28 is a graph showing that Tie-1 induced endothelial inflammation is p38 dependent.
Adenovirus construction: For adenovirus production, we chose the AdEasy adenoviral expression system due to its ease of use and ability to generate high titer virus. Coding sequence of mouse Tie-1 excluding the endogenous leader sequence was amplified from cDNA prepared from mouse lung tissue. The following expression cassette was constructed: IgK leader sequence, a Flag epitope tag sequence, and the coding region of mouse Tie-1. This cassette was subcloned into the shuttle vector pAdTrack, which contains two CMV promoters to express the gene of interest and the green fluorescent protein (GFP) independently. After homologous recombination in the E. coli strain BJ5183 (Stratagene), the recombined pAdeasy DNA (PacI-cut) was used to transfect 293A cells (Invitrogen). After several rounds of amplification, the virus was purified using the Ad-Pure Adenoviral Purification Kit (BioVintage) and tittered using 293A as the host. Immediately prior to use, the virus was desalted and buffer-exchanged into endothelial growth medium using a spin column (Pierce). Adenoviral infection: Human umbilical vein endothelial cells (HUVECs) and human aortic endothelial cells (HAECs) were purchased from Cambrex and maintained as recommended by the manufacturer. To overexpress Tie-1, 200,000 endothelial cells were plated in one well of a […]. After overnight incubation, adenovirus harboring the Tie-1 expression cassette was added to the endothelial cells at MOI of 10:1. An “empty virus” expressing only GFP was used as a control. Seventeen hours later, medium was replaced with fresh medium. Cells were maintained and processed at the desired time points for the experiments described below. […] Lysates were immunoprecipitated with an anti-Tiel antibody (Santa Cruz, SC-342). Western blotting with anti phosphotyrosine antibody (4G10, Upstate) was used to determine the phosphorylation status of Tie-1. The membrane was stripped and reblotted with the anti-Tiel antibody. A portion of the lysates was immunoprecipitated with 4G10. Tyrosine phosphorylation of Tie-1 was confirmed by western blotting with the anti-Tiel antibody using these 4G10 immunoprecipitates. Antibody array experiment: HUVECs were infected as described. Forty-eight hours later, supernatants from Tie-1 expressing or GFP expressing cells were collected. After brief centrifugation to remove cell debris, the supernatants were spun through a 0.22-μm cellulose acetate filter (Spin-X, Costar). Cytokine and chemokine contents in the conditioned media were screened using the RayBio Human Inflammation Antibody Array 3.1(RayBiotech). Real-time polymerase chain reactions (PCR)—Total RNAs from endothelial cells were isolated by the RNAeasy Mini Kit (Qiagen) and used as templates in oligo-dT primed reverse transcription using the Superscript III reverse transcriptase (Invitrogen). Real-time PCRs were performed using the QuantiTect Probe PCR Kit (Qiagen) with the 7500 Real Time PCR System (Applied Biosystems). Gene of interest and GAPDH were multiplexed for normalization as described (Dupuy et al., Exp. Cell Res. 185: 363-372., (1989)). The following real time PCR probes were purchased from Applied Biosystems and used in this study: CCL2 5′-[…]-3′(SEQ ID NO: 27); VCAM-1: 5′-[…]-3 (SEQ ID NO: 28)′; ICAM: 5′-[…]-3′(SEQ ID NO: 29); CXCL10: 5′-[…]-3′(SEQ ID NO: 30); E-selectin: 5′-[…]-3′(SEQ ID NO: 31); IL-6: 5′-[…]-3′ (SEQ ID NO: 32). ELISA—HUVECs were infected as described above. Supernatants were collected from Tie-1 expressing or GFP expressing cells 70 hours post infection. The ELISA kit for human IL-6 was purchased from R and D Systems. Western blots—Endothelial cell lysates were prepared in denaturing SDS-PAGE loading buffer, sonicated, heated at 80° C. for 5 mins, and fractionated on SDS-PAGE. […]

[5] = tested on: EphA2; test: EphA2 tyrosine phosphorylation in HUVECs stimulated with PAR agonistic peptides; format: cell-based, human; conditions: peptides at 20 μM as stimulants
Experimental: FIG. 37 is an immunoblot showing PAR-1 activates EphA2. Confluent HUVECs were stimulated with PAR agonistic peptides TFLLR-NH2 (PAR-1) (SEQ ID NO: 11), RLLFT-NH2 (negative control for PAR-1) (SEQ ID NO: 12), SLIGKV-NH2 (PAR-2) (SEQ ID NO: 13), GYPGKF-NH2 (PAR-4) (SEQ ID NO: 14), and thrombin. Tyrosine phosphorylation of EphA2 was determined by western blot.
Methods: HUVECs were prepared and stimulated as described in above except that the following peptides at 20 μM were used as stimulants: TFLLR-NH2 (PAR-1; SEQ ID NO: 11), RLLFT-NH2 (negative control for PAR-1; SEQ ID NO: 12), SLIGKV-NH2 (PAR-2; SEQ ID NO: 13), and GYPGKF-NH2 (PAR-4; SEQ ID NO: 14).

[6] = tested on: EphA2; test: EphA2 tyrosine phosphorylation in HUVECs (immunoprecipitation/4G10 western blot), Src dependence; format: cell-based, human
Experimental: Confluent HUVECs were pretreated with either DMSO or PP2 for […] and then stimulated with 1 U/ml thrombin or […] Ephrin A1-FC. EphA2 was immunoprecipitated and tyrosine phosphorylation was detected by immunoblot using an anti-phophotyrosine antibody (top panel). The blot was stripped and reblotted with the EphA2 antibody for loading (bottom panel). Representative data from 3 independent experiments are shown.
Methods: Mouse EphrinA1 in a form of FC fusion was purchased from R and D Systems. Pharmacological agents PP2 was used to examine the role of Src in EphA2 phosphorylation. Confluent HUVECs were pretreated with PP2 (2 μM) or DMSO for 1 hour, followed by a 10-min treatment with sodium orthovandate (1 mM). Cells were then stimulated for 30 mins with either 1 U/ml thrombin or 250 ng/ml […]. HUVECs were lysed in RIPA buffer. Clarified lysates were immunoprecipitated with 2 μg of a polyclonal anti human EphA2 antibody (Santa Cruz) and Protein A/G Plus. Tyrosine phosphorylation and EphA2 were detected using the 4G10 and the EphA2 antibody (Santa Cruz), respectively.

hirudin
development of stenosis after balloon angioplasty [1]: reduces
cleavage of the chromogenic thrombin substrate [2]: completely blocked

soluble EphA2: soluble EphA2 added in excess during thrombin stimulation
ICAM-1 expression induced by thrombin, block by co-incubation ([3]; soluble EphA2 at concentrations up to 1 μg/ml, thrombin 1 U/ml, 6 hr): failed to block

C[S+]([O-])c1ccc(-c2nc(-c3ccncc3)c(-c3ccc(F)cc3)[nH]2)cc1 (centres unmarked) [SB-203580]
Tie-1-induced CCL2 upregulation [4]: Significant inhibition
Tie-1-induced ICAM-1 upregulation [4]: Significant inhibition
Tie-1-induced upregulation of E-selectin mRNA [4]: almost completely blocked
Tie-1-induced upregulation of IL-6 mRNA [4]: almost completely blocked
Tie-1-induced upregulation of IP-10 mRNA [4]: almost completely blocked
Tie-1-induced upregulation of VCAM-1 mRNA [4]: almost completely blocked

RLLFT-NH2
EphA2 tyrosine phosphorylation (transactivation) in HUVECs [5]: failed to induce

GYPGKF-NH2 [PAR-4 specific agonist]
EphA2 tyrosine phosphorylation (transactivation) in HUVECs [5]: failed to induce

CC(C)(C)n1nc(-c2ccc(Cl)cc2)c2c(N)ncnc21 [PP2]
tyrosine phosphorylation of EphA2 by EphrinA1, sensitivity to PP2 ([6]; PP2 2 μM 1 hour, 250 ng/ml EphrinA1-FC 30 mins): insensitive
thrombin-induced EphA2 tyrosine phosphorylation ([6]; PP2 2 μM 1 hour, 1 U/ml thrombin 30 mins): completely abrogated

SLIGKV-NH2 [PAR-2 specific agonist]
EphA2 tyrosine phosphorylation (transactivation) in HUVECs [5]: failed to induce

TFLLR-NH2 [PAR-1 specific agonistic peptide]
EphA2 tyrosine phosphorylation (transactivation) in HUVECs [5]: recapitulated EphA2 transactivation

B1: EphrinA1-FC: Mouse EphrinA1 in a form of FC fusion, R and D Systems (protein)
chain: DRHIVFWNSSNPKFREEDYTVHVQLNDYLDIICPHYEDDSVADAAMERYTLYMVEHQEYVACQPQSKDQVRWNCNRPSAKHGPEKLSEKFQRFTPFILGKEFKEGHSYYYISKPIYHQESQCLKLKVTVNGKITHNPQAHVNPQEKRLQADDPEVQVLHSIGYS
modifications: left off: a dimerising Fc or GST
notes: Mouse EphrinA1 in a form of FC fusion, R and D Systems
stimulation of ICAM-1 expression ([3]; EphrinA1-FC up to 10 μg/ml, no thrombin): did not stimulate
activation of EphA2 in endothelial cells ([6]; FC-fusion protein, 250 ng/ml, 30 mins): induced significant activation
